Molecules are shown by their SMILES.

Experimental findings from patent US20100310530A1, “Cell Therapy for Brain Tissue Damage” (StemCyte Inc., priority 2009, published 2010) are described below.

For one test, the system named is Epac1. Description: Western blot of Epac1 in hUCB^34 cells after hypoxia preconditioning or DFX. Type of test: cell-based, human. Conditions: cells treated with DFX, under either hypoxic or normoxic conditions. As to the method:
(§1) hUCB^34 cells (1×10^6/mL) were cultured in a StemSpan SFEM medium (StemCell Technologies, Vancouver, Canada) at 37° C. in 5% CO2-humidified incubators in normoxic (20% O2) or hypoxic (1% O2) conditions as previously described (Ivanovic et al., 2000, Br J Haematol 108:424-429). Hypoxic cultures were cultivated in a two-gas incubator (Jouan, Winchester, Va., USA) equipped with an O2 probe to regulate N2 levels. Cell number and viability were evaluated using trypan blue exclusion assay. For flowcytometry, cells were incubated with anti-human CD34 (Miltenyi Biotec, Gladbach, Germany) and then analyzed on a FACSCalibur flow cytometer (Becton, Dickinson and Co.). To produce chemical hypoxia, cells were treated in a medium containing […] of Desferrioxamine (DFX, Sigma-Aldrich, MO) that mimics hypoxic conditions by inhibiting the hydroxylation of a prolyl residue that is essential for the ubiquitination of HIF-1α (Schioppa et al., 2003, J Exp Med 198:1391-1402). […] The intensity of each band was measured using a Kodak Digital Science 1D Image Analysis System (Eastman Kodak, Rochester, N.Y.). The ratio of band intensity of Western blots in comparison with the internal control was calculated. Results were expressed as the mean value of the ratio±SEM for preparations.

For test [1], the system named is hypoxia-inducible factor-1α (HIF-1α). Description: Western blot of HIF-1α in HP- and DFX-treated hUCB^34 cells. Format: cell-based, human. Conditions: HP- and DFX-treated hUCBs^34. As for the experimental part: as §1
Another test relates to cerebral ischemia rats. Put plainly: Neurological behavioral measurements after cerebral ischemia (MCA ligation). Format: in vivo, rat. As to conditions: GM6001 ip after HP-hUCB^34 implantation, or brefeldin A-incubated HP-hUCB^34; vs vehicle control.
A further test concerns ischemic rat brains. Put plainly: Cell engraftment and neural differentiation in ischemic brain (immunofluorescent colocalization). Format: in vivo. Conditions: injection of GM6001 or brefeldin A-pretreatment of cells.
The next test concerns cerebral ischemic rats. Description: Neurite regeneration in vivo in cerebral ischemic rats. Also on record: species or system rat. As to conditions: cells incubated with 10 μg/mL brefeldin A. As for the experimental part:
Experimental rats and mice were divided into three groups (FIG. 2A): Intracerebral transplantation of hUCB^34 with HP (HP-hUCB^34), intracerebral transplantation of hUCB^34 without HP (hUCB^34), and a vehicle-control group. All transplantation took place on day 7. The HP-hUCB^34 group was treated in 1% O2 hypoxic conditions for 20-24 hours. Cerebral ischemia was induced in every experimental rat on day 0. At 7 days after cerebral ischemia, experimental rats in the two intracerebral hUCB^34 transplantation groups were injected stereotaxically with approximately 2×10^5 cells of hUCB^34 labeled with bis-benzimide in a 3-5 μL PBS suspension through a 26- or 30-gauge Hamilton syringe into 3 cortical areas, 3.0 to 5.0 mm (2.0 to 3.0 mm for mice) below the dura. […]
Measurement of neurite regeneration was performed as described earlier (Cafferty et al., 2004, J Neurosci 24:4432-4443). […] For quantification analysis, neurons with processes greater than twice the cell body diameter were counted as neurite-bearing cells. The length of the longest neurite of each neuron was measured from digitized images and quantified using imaging analysis software (SigmaScan 4.01.003).

Experimental for cerebral ischemia rats: (§2) Experimental rats and mice were divided into three groups (FIG. 2A): Intracerebral transplantation of hUCB^34 with HP (HP-hUCB^34), intracerebral transplantation of hUCB^34 without HP (hUCB^34), and a vehicle-control group. All transplantation took place on day 7. The HP-hUCB^34 group was treated in 1% O2 hypoxic conditions for 20-24 hours. Cerebral ischemia was induced in every experimental rat on day 0. At 7 days after cerebral ischemia, experimental rats in the two intracerebral hUCB^34 transplantation groups were injected stereotaxically with approximately 2×10^5 cells of hUCB^34 labeled with bis-benzimide in a 3-5 μL PBS suspension through a 26- or 30-gauge Hamilton syringe into 3 cortical areas, 3.0 to 5.0 mm (2.0 to 3.0 mm for mice) below the dura. The approximate coordinates for these sites were 1.0 to 2.0 mm (0 to 1.0 mm for mice) anterior to the bregma and 3.5 to 4.0 mm (2.0 to 2.5 mm for mice) lateral to the midline, 0.5 to 1.5 mm (0 to 1.0 mm for mice) posterior to the bregma and 4.0 to 4.5 mm (2.0 to 3.5 mm for mice) lateral to the midline, and 3.0 to 4.0 mm (1.5 to 2.5 mm for mice) posterior to the bregma and 4.5 to 5.0 mm (2.0 to 3.0 mm for mice) lateral to the midline. The needle was retained in place for 5 minutes after each injection and a piece of bone wax was applied to the skull defects to prevent leakage of the injected solution. […]
Experimental for ischemic rat brains: as §2

Take `CC(=O)N(O)CCCCCNC(=O)CCC(=O)N(O)CCCCCNC(=O)CCC(=O)N(O)CCCCCN` [DFX, Desferrioxamine]: the “levels of Epac1 versus control cells” value with Epac1 is given as “much higher levels of Epac1 than control cells”. For the same compound, in test [1], the “protein level of HIF-1α” value is “increase in the protein level”.

On to `CNC(=O)[C@H](Cc1c[nH]c2ccccc12)NC(=O)[C@@H](CC(=O)NO)CC(C)C` [GM6001], for which the “neurological behavior recovery after HP-hUCB^34 implantation in presence of inhibitor” value in the test on cerebral ischemia rats is recorded as “almost no recovery”. Moreover, the “number of engrafted cells in HP-hUCB^34-treated rats with inhibitor” value with ischemic rat brains is “diminished”.

On to `C[C@H]1CCC/C=C/[C@@H]2C[C@H](O)C[C@H]2[C@H](O)/C=C/C(=O)O1` [brefeldin A], for which, in the test with cerebral ischemic rats, the “neurite regeneration after transplantation of brefeldin A-incubated HP-hUCB^34” value is recorded as “could not promote the neurite regeneration”. The “neurological behavior recovery after HP-hUCB^34 implantation in presence of inhibitor” value in the test with cerebral ischemia rats is “down-regulated to the same extent as that of control group”. In addition, in the test on ischemic rat brains, the “number of engrafted cells in HP-hUCB^34-treated rats with inhibitor” value is listed as “diminished”.
